This note sets out measurements from patent US20230172958A1, “USE OF COMPOUNDS FOR TREATING VIRAL INFECTIONS” (priority 2020, published 2023).

One assay concerns SARS-CoV-2. In kind it is in vivo, golden Syrian hamster.
For a further assay, the system named is V-ATPase. As to the kind of experiment: V-ATPase ELISA (Human V-Type Proton ATPase ELISA kit) on treated MDAMB231 cells. The conditions noted are these: 100 nM (0.1 μM)/10,000 cells, 48 hours. Type of assay: cell-based. How it is done:
An ELISA test was performed using Human V-Type Proton ATPase ELISA kit (My BioSource Catlog no: MBS911862) to determine the V-ATPase inhibitory effect of the compounds of the present invention.
Procedure: 1.0 million cells of MDAMB231 (cell line rich in V-ATPase) were plated on 60 mm plates for 24 hours at 37° C. and 5% CO2. The cells were treated with the test compounds (Formula A to U) at a concentration of 100 nM (0.1 μM)/10,000 cells and incubated for 48 hours. After incubation the supernatant was discarded, the cells were washed with D.P.B.S. (Dulbecco's phosphate-buffered saline), scraped and stored at −80° C. for 48 hours. The cells were thawed, vortexed, homogenized for 7 minutes, followed by centrifugation for 3 minutes at 3000 R.P.M. The supernatant was taken for V-ATPase Assay.
Standards and samples were pipetted into the wells. Antibody specific for V-ATPase was pre-coated onto a microplate. Any V-ATPase present in the standard /sample would get bound by the immobilized antibody. After the incubation period any unbound substances were removed by washing and a biotin-conjugated antibody specific for V-ATPase was added to the wells and plates were re-incubated at 37° C. and 5% CO2. After washing, avidin conjugated Horseradish Peroxidase (HRP) was added to the wells. Following a wash to remove any unbound avidin-enzyme reagent, a substrate solution was added to the wells and colour developed was in proportion to the amount of V-ATPase bound in the initial step. The colour development was stopped, and the optical density was measured at 450 nm spectrophotometrically. The concentration of V-ATPase was then calculated by substituting the optical density in the regression equation obtained from the standards. Percent (%) reduction in V-ATPase was calculated by subtracting the amount of V-ATPase obtained from the untreated/conc. of V-ATPase in untreated X100.
On the technique in general: In an ELISA, binding on a coated surface is turned into a signal by an enzyme label.

“Also recorded” adds a separate entry of the source. Read-outs that look alike come from different tables or passages of the source.

For the compound `COC1COC(Oc2ccc(-c3ccc4c(c3)OCO4)c3ccccc23)C(O)C1OC` (centres unmarked) [Compound of Formula E, 2-(1-(benzo[d][1,3]dioxol-5-yl)naphthalen-4-yloxy)-tetrahydro-4,5-dimethoxy-2H-pyran-3-ol], the “IL4 mRNA expression in splenocytes” value with SARS-CoV-2 (across all the groups) is given as “dramatic inhibition”. For the same compound, in the assay with SARS-CoV-2 (hamster, in vivo), the “body mass loss post infection” value is given as “did not lose weight post infection; also recorded: second best recovery; also recorded: marginal protection”; the “gross lung pneumonitis and inflammation, day 4 post challenge” value is “significantly lesser regions of pneumonitis and inflammation”; the “histological parameters and overall disease score (H&E)” value is reported as “best protection”; the “histological protection (H&E)” value is listed as “little, or no protection”. Moreover, in the assay with SARS-CoV-2 (hamster, in vivo), the “pneumonitis, alveolar epithelial injury and lung inflammation score (H&E)” value is recorded as “good reduction”; the “reduction in relative lung viral load (N2 gene)” value turned out to be 5 fold; the splenomegaly entry is “significant mitigation”. Moreover, the spleen size entry in the assay with SARS-CoV-2 (other drug groups (δI/200, δII/800, δIV/400)) is listed as “little or no reduction”. The “overall protective efficacy against SARS-CoV-2 infection” value in the assay with SARS-CoV-2 (pre-treatment with 400 mpk, compared to Remdesivir) was “decreased lung viral load and pneumonitis compared to Remdesivir”. In addition, in the assay with SARS-CoV-2 (δI/200), the “IL17A mRNA expression in splenocytes” value is listed as “inhibition” and the “INFγ mRNA expression in splenocytes” value is listed as “highest induction”. Also, in the assay on SARS-CoV-2 (δIII/p400), the “IL17A mRNA expression in splenocytes” value was “inhibition”. For the same compound, the “reduction of V-ATPase (%)” value with V-ATPase was 15.6%.
